Test results from the NIST ThermoML archive (doi:10.1021/acs.jced.7b00083).
Numbers after ± are expanded uncertainties.

Experiment: molar enthalpy of vaporization or sublimation
Conditions: 298.15 K; Crystal; Static calorimetry

S=C1NCCN1 [imidazolidine-2-thione]
molar enthalpy: 25.7 ± 0.359 kcal/mol
